Results taken from a compilation of properties of binary mixtures (doi:10.1016/j.molliq.2019.110987).

Assay: xn = mol fraction of the nth substance listed
Details: 100 kPa

CCCC[P+](C)(CCCC)CCCC.COS(=O)(=O)[O-] + CN(C)C=O
Details | speed of sound [m/s] | viscosity [mPa·s]
293.15 K, x1 = 0.0474 | 1486.7 | 1.774
293.15 K, x1 = 0.0765 | 1492.6 | 2.681
293.15 K, x1 = 0.1106 | 1502.8 | 3.495
293.15 K, x1 = 0.1508 | 1513.1 | 5.02
293.15 K, x1 = 0.1991 | 1518.1 | 6.59
293.15 K, x1 = 0.2582 | 1529.5 | 12.72
293.15 K, x1 = 0.5542 | 1551.2 | 145.3
293.15 K, x1 = 0.6717 | 1554.1 | 246
293.15 K, x1 = 0.7768 | 1557.2 | 368
293.15 K, x1 = 0.8253 | 1559.8 | 439
293.15 K, x1 = 0.8837 | 1560.2 | 532
293.15 K, x1 = 1 | 1563.7 | 729
298.15 K, x1 = 0.0474 | 1472.5 | 1.934
298.15 K, x1 = 0.0765 | 1482.5 | 3.021
298.15 K, x1 = 0.1106 | 1491.5 | 4.201
298.15 K, x1 = 0.1508 | 1499.4 | 5.71
298.15 K, x1 = 0.1991 | 1506.2 | 9.12
298.15 K, x1 = 0.2582 | 1511.1 | 17.12
298.15 K, x1 = 0.3321 | 1523.3 | 24.22
298.15 K, x1 = 0.4272 | 1529.1 | 41
298.15 K, x1 = 0.5542 | 1535.5 | 80.9
298.15 K, x1 = 0.6717 | 1538.1 | 164.4
298.15 K, x1 = 0.7768 | 1540.5 | 267
298.15 K, x1 = 0.8253 | 1542.3 | 315
298.15 K, x1 = 0.8837 | 1544 | 389
298.15 K, x1 = 0.9362 | 1545 | 445
303.15 K, x1 = 0.0474 | 1453.5 | 1.154
303.15 K, x1 = 0.1106 | 1471.3 | 3.824
303.15 K, x1 = 0.1508 | 1479.2 | 4.91
303.15 K, x1 = 0.1991 | 1487.8 | 5.73
303.15 K, x1 = 0.2582 | 1497.1 | 11.88
303.15 K, x1 = 0.3321 | 1503.3 | 15.34
303.15 K, x1 = 0.4272 | 1510.1 | 31.14
303.15 K, x1 = 0.5542 | 1519.2 | 44.8
303.15 K, x1 = 0.6717 | 1520.1 | 115.1
303.15 K, x1 = 0.7768 | 1523.5 | 192.4
303.15 K, x1 = 0.8253 | 1525.4 | 233
303.15 K, x1 = 0.9362 | 1528.2 | 325
303.15 K, x1 = 1 | 1529.6 | 381
308.15 K, x1 = 0.0474 | 1434.9 | 2.009
308.15 K, x1 = 0.0765 | 1444.1 | 2.042
308.15 K, x1 = 0.1106 | 1452.2 | 3.858
308.15 K, x1 = 0.1508 | 1461.5 | 4.52
308.15 K, x1 = 0.1991 | 1470.1 | 5.96
308.15 K, x1 = 0.2582 | 1479.6 | 10.08
308.15 K, x1 = 0.3321 | 1485.8 | 13.81
308.15 K, x1 = 0.4272 | 1495.1 | 26.52
308.15 K, x1 = 0.5542 | 1501.1 | 37.9
308.15 K, x1 = 0.7768 | 1507 | 140.5
308.15 K, x1 = 0.8253 | 1509.1 | 170.5
308.15 K, x1 = 0.8837 | 1510.8 | 201
308.15 K, x1 = 0.9362 | 1513.8 | 242
308.15 K, x1 = 1 | 1514.3 | 286
313.15 K, x1 = 0.0765 | 1426.1 | 2.915
313.15 K, x1 = 0.1106 | 1433.2 | 3.012
313.15 K, x1 = 0.1508 | 1444.1 | 4.451
313.15 K, x1 = 0.1991 | 1452.6 | 5.02
313.15 K, x1 = 0.2582 | 1460.2 | 8.85
313.15 K, x1 = 0.3321 | 1469.2 | 13.52
313.15 K, x1 = 0.4272 | 1479.1 | –
313.15 K, x1 = 0.5542 | 1487.8 | 32.59
313.15 K, x1 = 0.6717 | 1489.8 | 66.5
313.15 K, x1 = 0.7768 | 1491.1 | 107.4
313.15 K, x1 = 0.8253 | 1494.8 | 127.5
313.15 K, x1 = 0.8837 | 1496.5 | 152.2
313.15 K, x1 = 0.9362 | 1497.5 | 182.7
318.15 K, x1 = 0.0474 | 1399.2 | 0.955
318.15 K, x1 = 0.0765 | 1409.7 | 1.855
318.15 K, x1 = 0.1106 | 1416.3 | 2.982
318.15 K, x1 = 0.1508 | 1425.5 | 4.147
318.15 K, x1 = 0.1991 | 1434.9 | 6.04
318.15 K, x1 = 0.4272 | 1463.7 | 20.74
318.15 K, x1 = 0.5542 | 1471.8 | 28.42
318.15 K, x1 = 0.6717 | 1475.1 | –
318.15 K, x1 = 0.7768 | 1478.2 | 81.3
318.15 K, x1 = 0.8253 | 1480.1 | 106.5
318.15 K, x1 = 0.8837 | 1482.6 | 127.4
318.15 K, x1 = 0.9362 | 1484.1 | 149.6
318.15 K, x1 = 1 | 1485.7 | 169.1
323.15 K, x1 = 0.0474 | 1382.2 | 1.897
323.15 K, x1 = 0.0765 | 1392.5 | 2.214
323.15 K, x1 = 0.1106 | 1398.2 | 2.469
323.15 K, x1 = 0.1991 | 1417.7 | 4.5
323.15 K, x1 = 0.2582 | 1425.1 | 9.48
323.15 K, x1 = 0.3321 | 1436.2 | 14.54
323.15 K, x1 = 0.4272 | 1445.5 | 19.56
323.15 K, x1 = 0.5542 | 1456 | 25.19
323.15 K, x1 = 0.6717 | 1461.6 | 43.1
323.15 K, x1 = 0.7768 | 1464.9 | –
323.15 K, x1 = 0.8253 | 1466.6 | 100.4
323.15 K, x1 = 0.9362 | 1471.7 | 123
323.15 K, x1 = 1 | 1472 | 133.4

CN(C)C=O + CCCC[P+](C)(CCCC)CCCC.COS(=O)(=O)[O-]
x2 = 0
Details | speed of sound [m/s] | viscosity [mPa·s]
293.15 K | 1484.1 | 0.867
298.15 K | 1468.9 | 0.813
303.15 K | 1447.2 | 0.764
313.15 K | 1410.2 | 0.684
318.15 K | 1391.2 | 0.663
